Assay results as given in patent publication US20240059703A1 (AMGEN INC., priority 2021, published 2024).

Tests used:
[1] = system: A549 (human lung carcinoma) cells; experiment: Cell Viability Assay (CellTiter-Glo), A549; assay type: cell-based
Outline: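 After a 72 h exposure to serial compound dilutions at 37° C, luminescent ATP content was measured with CellTiter-Glo. The cells were A549 or MIA PaCa-2, seeded at 1.67E+04 cells/mL in RPMI 1640 with 10% serum. Signals were normalized to DMSO controls and IC50 fitted with a 4-parameter logistic model.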

[2] = system: MIA PaCa-2 (human pancreatic carcinoma) cells; experiment: Cell Viability Assay (CellTiter-Glo), MIA PaCa-2; assay type: cell-based
Method: Serially-diluted compound or DMSO was added to the cells, and plates were incubated at 37° C., 5% CO2 for 72 h. Cell viability was measured using a CellTiter-Glo® Luminescent Cell Viability Assay kit (Promega) according to the manufacturer's protocol. The luminescence signal of treated samples was normalized to DMSO control, and data were analyzed using a 4-parameter logistic model to calculate IC50 values.

[3] = molecular target: KRAS G12C (Homo sapiens (Human), UniProt P01116, C118A/G12C); experiment: 2 h coupled exchange assay; assay type: biochemical; conditions: Avg 2 h Coupled exchange IC50, 2 h compound pre-incubation
Sequence of KRAS G12C (P01116 other isoform, or with tags, fused parts or gaps G12C/C118A): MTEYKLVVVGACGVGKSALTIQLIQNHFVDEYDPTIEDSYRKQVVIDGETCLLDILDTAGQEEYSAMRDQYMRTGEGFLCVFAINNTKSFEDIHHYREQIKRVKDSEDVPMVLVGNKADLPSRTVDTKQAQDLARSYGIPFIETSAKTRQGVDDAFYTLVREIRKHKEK
Method: The term “2 h coupled exchange assay” or “20 h coupled exchange assay” as used herein refers to the assay described in the Section entitled “BIOLOGICAL EVALUATION.”

[4] = SOS-mediated nucleotide exchange

Compound | IC50 ([1]; Homo sapiens, A549, 72 h) [nM] | IC50 ([2]; Homo sapiens, MIA PaCa-2, 72 h) [nM] | IC50 [3, 4] [nM] | IC50 [3] [nM] | IC50 ([1]; 72 h) [nM] | IC50 ([2]; 72 h) [nM]
C=CC(=O)N1CC2(CCN(c3nc4c(c(-c5c(C)ccc6cnn(C)c56)c3C)CCC(C)(C)C4)C2)C1 [Example 2-19, 1-(6-(4-(1,6-dimethyl-1H-indazol-7-yl)-3,7,7-trimethyl-5,6,7,8-tetrahydro-2-quinolinyl)-2,6-diazaspiro[3,4]octan-2-yl)-2-propen-1-one] | > 5000 | 392 | 104 | – | – | –
C=CC(=O)N1CC2(CCN(c3nc4c(c(-c5ncccc5C)c3C#N)CC[C@@](C)(c3scnc3C)C4)C2)C1 [Example 23-10, (7R)-7-methyl-4-(3-methyl-2-pyridinyl)-7-(4-methyl-1,3-thiazol-5-yl)-2-(2-(2-propenoyl)-2,6-diazaspiro[3.4]octan-6-yl)-5,6,7,8-tetrahydro-3-quinolinecarbonitrile] | > 5000 | 478 | – | 200 | – | –
C=CC(=O)N1CC2(CCN(c3nc4c(c(-c5cc(O)cc(C)c5Cl)c3C)COC(C)(C)C4)C2)C1 [Example 12-1, 1-(6-(4-(2-chloro-5-hydroxy-3-methylphenyl)-3,7,7-trimethyl-7,8-dihydro-5H-pyrano[4,3-b]pyridin-2-yl)-2,6-diazaspiro[3.4]octan-2-yl)prop-2-en-1-one] | > 5000 | 88 | 94 | – | – | –
C=CC(=O)N1CC2(CCN(c3nc4ccccc4c(-c4c(C)ccc5[nH]ncc45)c3Cl)C2)C1 [Example 27-2, 1-(6-(3-chloro-4-(5-methyl-1H-indazol-4-yl)-2-quinolinyl)-2,6-diazaspiro[3.4]octan-2-yl)-2-propen-1-one] | > 5000 | 2640 | – | 121 | – | –
C=CC(=O)N1CC2(CCN(c3nc4c(c(-c5cc(O)ccc5Cl)c3C#N)CCC(c3scnc3C)=C4)C2)C1 [Example 23-45, 4-(2-chloro-5-hydroxyphenyl)-7-(4-methyl-1,3-thiazol-5-yl)-2-(2-(2-propenoyl)-2,6-diazaspiro[3.4]octan-6-yl)-5,6-dihydro-3-quinolinecarbonitrile] | > 5000 | 1070 | – | 33 | – | –
C=CC(=O)N1CC2(CCN(c3nc4c(c(-c5c(C)cccc5F)c3C#N)CCC(c3scnc3C)=C4)C2)C1 [Example 23-48, 4-(2-fluoro-6-methylphenyl)-7-(4-methyl-1,3-thiazol-5-yl)-2-(2-(2-propenoyl)-2,6-diazaspiro[3.4]octan-6-yl)-5,6-dihydro-3-quinolinecarbonitrile] | 3430 | 761 | – | 112 | – | –
C=CC(=O)N1CC2(CCN(c3nc4c(c(-c5cc(O)cc6ccccc56)c3F)COC(C)(C)C4)C2)C1 (single isomer, unassigned) [Example 14-70, (P)-1-(6-(3-fluoro-4-(3-hydroxy-1-naphthalenyl)-7,7-dimethyl-7,8-dihydro-5H-pyrano[4,3-b]pyridin-2-yl)-2,6-diazaspiro[3.4]octan-2-yl)-2-propen-1-one] | > 5000 | 82 | – | 68 | – | –
C=CC(=O)N1CC2(CCN(c3nc4cc(-c5scnc5C)ccc4c(-c4ccccc4C)c3C#N)C2)C1 (single isomer, unassigned) [Example 19-11, (P)-4-(2-methylphenyl)-7-(4-methyl-1,3-thiazol-5-yl)-2-(2-(2-propenoyl)-2,6-diazaspiro[3.4]octan-6-yl)-3-quinolinecarbonitrile] | > 5000 | 1350 | – | 68 | – | –
C=CC(=O)N1CC2(CCN(c3nc4c(c(-c5cccc6cccc(C)c56)n3)OCCC4)C2)C1 [Example 1-42, 1-(6-(4-(8-methyl-1-naphthalenyl)-7,8-dihydro-6H-pyrano[3,2-d]pyrimidin-2-yl)-2,6-diazaspiro[3,4]octan-2-yl)-2-propen-1-one] | 22800 | 5920 | 456 | – | – | –
C=CC(=O)N1CC2(CCN(c3nc4c(c(-c5ccccc5F)c3C#N)CCN(c3ccncc3C)C4)C2)C1 [Example 21-21, 4-(2-fluorophenyl)-7-(3-methyl-4-pyridinyl)-2-(2-(2-propenoyl)-2,6-diazaspiro[3.4]octan-6-yl)-5,6,7,8-tetrahydro-1,7-naphthyridine-3-carbonitrile] | > 5000 | > 5000 | – | 442 | – | –
C=CC(=O)N1CC2(CCN(c3nc4c(c(-c5c(C)c(Cl)cc6cnn(C)c56)c3C)COC(C)(C)C4)C2)C1 [Example 14-87, 1-(6-(4-(5-chloro-1,6-dimethyl-1H-indazol-7-yl)-3,7,7-trimethyl-7,8-dihydro-5H-pyrano[4,3-b]pyridin-2-yl)-2,6-diazaspiro[3.4]octan-2-yl)-2-propen-1-one] | > 5000 | 68 | – | 39 | – | –
C=CC(=O)N1CC2(CCN(c3nc4c(c(-c5cc(O)c(F)cc5Cl)c3C#N)C[C@H]3C[C@@H]4C3(C)C)C2)C1 [Example 14-84, (1R,9R)-6-(2-chloro-4-fluoro-5-hydroxyphenyl)-10,10-dimethyl-4-(2-(2-propenoyl)-2,6-diazaspiro[3.4]octan-6-yl)-3-azatricyclo[7.1.1.0^2,7]undeca-2,4,6-triene-5-carbonitrile] | > 5000 | 2150 | – | 144 | – | –
C=CC(=O)N1CC2(CCN(c3nc4c(c(-c5cc(O)ccc5F)c3C#N)CCN(C(C)C)C4)C2)C1 [Example 21-15, 4-(2-fluoro-5-hydroxyphenyl)-7-(2-propanyl)-2-(2-(2-propenoyl)-2,6-diazaspiro[3.4]octan-6-yl)-5,6,7,8-tetrahydro-1,7-naphthyridine-3-carbonitrile] | > 5000 | > 5000 | – | 220 | – | –
C=CC(=O)N1CC2(CCN(c3nc4c(c(-c5ccc(F)cc5F)c3C#N)CCC(c3scnc3C)=C4)C2)C1 [Example 23-21, 4-(2,4-difluorophenyl)-7-(4-methyl-1,3-thiazol-5-yl)-2-(2-(2-propenoyl)-2,6-diazaspiro[3.4]octan-6-yl)-5,6-dihydro-3-quinolinecarbonitrile] | 3780 | 714 | – | 74 | – | –
C=CC(=O)N1CC2(C1)CN(c1nc3c(c(-c4c(C)ccc5[nH]ncc45)c1C#N)CCC(C)(C)C3)CC2(F)F [Example 2-105, 2-(8,8-difluoro-2-(2-propenoyl)-2,6-diazaspiro[3.4]octan-6-yl)-7,7-dimethyl-4-(5-methyl-1H-indazol-4-yl)-5,6,7,8-tetrahydro-3-quinolinecarbonitrile] | 3420 | 425 | 91 | – | – | –
C=CC(=O)N1CC2(CCN(c3nc4cc(-c5scnc5C)ccc4c(-c4ccccc4Cl)c3C#N)C2)C1 (single isomer, unassigned) [Example 20-4, (P)-4-(2-chlorophenyl)-7-(4-methyl-1,3-thiazol-5-yl)-2-(2-(2-propenoyl)-2,6-diazaspiro[3.4]octan-6-yl)-3-quinolinecarbonitrile] | – | – | – | 69 | > 5000 | 1010
C=CC(=O)N1CC2(CCN(c3cc4c(c(-c5cc(O)cc6ccccc56)c3C#N)OCCC4)C2)C1 (single isomer, unassigned) [Example 2-54, (M)-8-(3-hydroxy-1-naphthalenyl)-6-(2-(2-propenoyl)-2,6-diazaspiro[3.4]octan-6-yl)-3,4-dihydro-2H-chromene-7-carbonitrile] | > 5000 | 56 | 28 | – | – | –
C=CC(=O)N1CC2(CCN(c3nc4c(c(-c5cccc6cc(O)ccc56)c3C)CCN(C(C)=O)C4)C2)C1 [Example 18-10, 1-(6-(7-acetyl-4-(6-hydroxy-1-naphthalenyl)-3-methyl-5,6,7,8-tetrahydro-1,7-naphthyridin-2-yl)-2,6-diazaspiro[3.4]octan-2-yl)-2-propen-1-one] | > 5000 | 381 | – | 260 | – | –
C=CC(=O)N1CC2(CCN(c3nc4c(c(-c5cc(O)ccc5C)c3Cl)COC(C)(C)C4)C2)C1 (single isomer, unassigned) [Example 2-81, (P)-1-(6-(3-chloro-4-(5-hydroxy-2-methylphenyl)-7,7-dimethyl-7,8-dihydro-5H-pyrano[4,3-b]pyridin-2-yl)-2,6-diazaspiro[3,4]octan-2-yl)-2-propen-1-one] | > 5000 | 58 | 53 | – | – | –
C=CC(=O)N1CC2(CCN(c3nc4c(c(-c5ccc(F)c6sc(N)nc56)c3C#N)COC(C)(C)C4)C2)C1 [Example 14-56, 4-(2-amino-7-fluoro-1,3-benzothiazol-4-yl)-7,7-dimethyl-2-(2-(2-propenoyl)-2,6-diazaspiro[3.4]octan-6-yl)-7,8-dihydro-5H-pyrano[4,3-b]pyridine-3-carbonitrile] | > 5000 | 135 | – | 93 | – | –
C=CC(=O)N1CC2(CCN(c3nc4c(c(-c5cc(O)ccc5C)c3C)CCC(C)(C)C4)C2)C1 [Example 2-62, 1-(6-(4-(5-hydroxy-2-methylphenyl)-3,7,7-trimethyl-5,6,7,8-tetrahydro-2-quinolinyl)-2,6-diazaspiro[3,4]octan-2-yl)-2-propen-1-one] | > 5000 | 1270 | 186 | – | – | –
C=CC(=O)N1CC2(CCN(c3nc4cc(-c5scnc5C)ccc4c(-c4ccc(F)cc4F)c3C#N)C2)C1 [Example 20-13, 4-(2,4-difluorophenyl)-7-(4-methyl-1,3-thiazol-5-yl)-2-(2-(2-propenoyl)-2,6-diazaspiro[3.4]octan-6-yl)-3-quinolinecarbonitrile] | 5980 | 1070 | – | 104 | – | –
